The target of assay [1] is Fibroblast growth factor receptor 1 (Homo sapiens, UniProt P11362). Put plainly: Selectivity interaction (Ambit KINOMEscan and KiNATiv profiling in Jurkat cells) EUB0000090b FGFR1. The format is cell-based. To be noted: at 1 µM.
The target in assay [2] is Serine/threonine-protein kinase N1 (Homo sapiens, UniProt Q16512). Put plainly: Selectivity interaction (ActivX KiNativ screen (ex vivo kinase selectivity in human PBMCs)) EUB0001619a PKN1. The assay is classed as cell-based. The following applies: PBMC, at 1 µM.
In a further assay the target is Activated CDC42 kinase 1 (Homo sapiens, UniProt Q07912). Put plainly: Selectivity interaction (KinomeScan (DiscoverX)) EUB0001619a TNK2. To be noted: at 1 µM.
Assay [3] has as its target Calcium/calmodulin-dependent protein kinase type II subunit beta (Homo sapiens) (UniProt Q13554). Put plainly: Selectivity interaction (ActivX KiNativ screen (kinase selectivity in THP-1 cell lysates)) EUB0000639a CAMK2B. The format is subcellular. To be noted: lysate, at 0.01 µM.
Assay [4] deals with Casein kinase I isoform delta (Homo sapiens, UniProt P48730). Put plainly: Selectivity interaction (Kinase panel (Invitrogen)) EUB0000639a CSNK1D. To be noted: at 200 nM.
Assay [5] has as its target Tyrosine-protein kinase HCK (Homo sapiens) (UniProt P08631). Put plainly: Selectivity interaction (ActivX KiNativ screen (kinase selectivity in THP-1 cell lysates)) EUB0000639a HCK. The assay is classed as subcellular. To be noted: lysate, at 0.01 µM.
Assay [6] addresses T1, Serine/threonine-protein kinase Sgk3 (Homo sapiens) (UniProt Q96BR1).
T1 sequence (whole entry): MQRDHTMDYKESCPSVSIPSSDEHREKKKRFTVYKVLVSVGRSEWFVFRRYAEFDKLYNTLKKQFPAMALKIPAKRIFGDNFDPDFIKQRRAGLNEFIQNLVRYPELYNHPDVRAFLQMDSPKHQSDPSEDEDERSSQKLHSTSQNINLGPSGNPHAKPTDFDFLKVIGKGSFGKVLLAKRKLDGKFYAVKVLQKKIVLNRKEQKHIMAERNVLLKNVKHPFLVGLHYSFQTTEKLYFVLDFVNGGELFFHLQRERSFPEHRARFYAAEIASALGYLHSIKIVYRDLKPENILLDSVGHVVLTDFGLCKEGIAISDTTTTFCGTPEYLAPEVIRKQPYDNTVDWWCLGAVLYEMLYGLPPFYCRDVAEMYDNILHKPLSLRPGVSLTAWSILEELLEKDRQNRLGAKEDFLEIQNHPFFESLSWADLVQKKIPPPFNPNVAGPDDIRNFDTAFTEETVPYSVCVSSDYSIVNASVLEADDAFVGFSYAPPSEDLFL
Put plainly: Selectivity interaction (ActivX KiNativ screen (kinase selectivity in THP-1 cell lysates)) EUB0000639a SGK3. The format is subcellular. To be noted: lysate, at 0.2 µM.

For assay [7], the target named is T2, Serine/threonine-protein kinase 3 (Homo sapiens) (UniProt Q13188).
T2 sequence (whole entry): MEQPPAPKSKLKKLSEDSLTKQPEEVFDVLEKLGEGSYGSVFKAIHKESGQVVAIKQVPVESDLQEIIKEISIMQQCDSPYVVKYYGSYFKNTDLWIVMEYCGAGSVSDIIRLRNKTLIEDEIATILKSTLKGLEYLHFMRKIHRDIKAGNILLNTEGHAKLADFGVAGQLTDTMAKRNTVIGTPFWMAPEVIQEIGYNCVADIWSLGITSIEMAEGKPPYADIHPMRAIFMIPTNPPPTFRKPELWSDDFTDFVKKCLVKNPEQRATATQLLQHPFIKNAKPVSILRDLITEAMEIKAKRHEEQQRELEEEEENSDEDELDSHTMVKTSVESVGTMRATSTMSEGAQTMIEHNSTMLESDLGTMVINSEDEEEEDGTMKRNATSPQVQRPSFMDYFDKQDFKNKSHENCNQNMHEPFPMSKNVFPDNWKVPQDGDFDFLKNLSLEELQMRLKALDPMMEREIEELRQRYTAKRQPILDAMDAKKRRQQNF
Put plainly: Selectivity interaction (Millipore kinase profiler) EUB0000124b STK3. The following applies: at 10 µM.

For assay [8], the target named is Serine/threonine-protein kinase PLK3 (Homo sapiens, UniProt Q9H4B4). Put plainly: Selectivity interaction (Millipore kinase profiler) EUB0000124b PLK3. The following applies: at 10 µM.
Assay [9] has as its target T3, Protein kinase C epsilon type (Homo sapiens) (UniProt Q02156).
T3 sequence (whole entry): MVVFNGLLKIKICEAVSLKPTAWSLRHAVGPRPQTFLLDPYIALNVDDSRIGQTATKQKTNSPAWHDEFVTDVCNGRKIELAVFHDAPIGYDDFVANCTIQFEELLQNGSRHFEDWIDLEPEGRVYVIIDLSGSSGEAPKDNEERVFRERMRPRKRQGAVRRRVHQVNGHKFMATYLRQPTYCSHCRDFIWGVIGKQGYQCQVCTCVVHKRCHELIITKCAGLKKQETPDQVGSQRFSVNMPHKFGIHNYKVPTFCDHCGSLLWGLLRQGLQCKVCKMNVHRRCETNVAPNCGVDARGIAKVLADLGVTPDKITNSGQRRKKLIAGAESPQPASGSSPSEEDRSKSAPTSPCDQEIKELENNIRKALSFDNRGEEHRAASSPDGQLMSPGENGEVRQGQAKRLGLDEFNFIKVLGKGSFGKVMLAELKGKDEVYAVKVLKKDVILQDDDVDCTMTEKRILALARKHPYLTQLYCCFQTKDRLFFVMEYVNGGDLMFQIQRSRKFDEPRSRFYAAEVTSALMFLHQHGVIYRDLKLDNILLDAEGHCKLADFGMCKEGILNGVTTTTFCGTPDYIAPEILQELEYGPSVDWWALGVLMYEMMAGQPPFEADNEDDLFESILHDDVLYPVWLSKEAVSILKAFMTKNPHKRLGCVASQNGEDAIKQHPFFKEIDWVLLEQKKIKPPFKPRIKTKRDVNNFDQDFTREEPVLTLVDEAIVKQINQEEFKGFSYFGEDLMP
Put plainly: Selectivity interaction (KinomeScan (DiscoverX)) EUB0001049a PRKCE. To be noted: at 1 µM.

For assay [10], the target named is Serine/threonine-protein kinase WNK4 (Homo sapiens) (UniProt Q96J92). Put plainly: Selectivity interaction (KinomeScan (DiscoverX)) EUB0001049a WNK4. The following applies: at 1 µM.
For another assay, the target named is Insulin receptor (Homo sapiens, UniProt P06213). Put plainly: Selectivity interaction (ProQinase) EUB0000171b INSR. To be noted: at 5 µM.
In assay [11] the target is Non-receptor tyrosine-protein kinase TYK2 (Homo sapiens, UniProt P29597). Put plainly: Selectivity interaction (KinomeScan (DiscoverX)) EUB0000045b TYK2.
Assay [12] addresses Serine/threonine-protein kinase MARK1 (Homo sapiens) (UniProt Q9P0L2). Put plainly: Selectivity interaction (KinomeScan (DiscoverX)) EUB0000618a MARK1. The following applies: at 10 µM.
In assay [13] the target is Tyrosine-protein kinase ABL1 (Homo sapiens, UniProt P00519). Put plainly: Selectivity interaction (Upstate Kinase Profiler service (Millipore)) EUB0000056c ABL1. To be noted: at 1 µM.

The structures appear in SMILES notation.

Non-receptor tyrosine-protein kinase TYK2, sequence (P29597 whole entry): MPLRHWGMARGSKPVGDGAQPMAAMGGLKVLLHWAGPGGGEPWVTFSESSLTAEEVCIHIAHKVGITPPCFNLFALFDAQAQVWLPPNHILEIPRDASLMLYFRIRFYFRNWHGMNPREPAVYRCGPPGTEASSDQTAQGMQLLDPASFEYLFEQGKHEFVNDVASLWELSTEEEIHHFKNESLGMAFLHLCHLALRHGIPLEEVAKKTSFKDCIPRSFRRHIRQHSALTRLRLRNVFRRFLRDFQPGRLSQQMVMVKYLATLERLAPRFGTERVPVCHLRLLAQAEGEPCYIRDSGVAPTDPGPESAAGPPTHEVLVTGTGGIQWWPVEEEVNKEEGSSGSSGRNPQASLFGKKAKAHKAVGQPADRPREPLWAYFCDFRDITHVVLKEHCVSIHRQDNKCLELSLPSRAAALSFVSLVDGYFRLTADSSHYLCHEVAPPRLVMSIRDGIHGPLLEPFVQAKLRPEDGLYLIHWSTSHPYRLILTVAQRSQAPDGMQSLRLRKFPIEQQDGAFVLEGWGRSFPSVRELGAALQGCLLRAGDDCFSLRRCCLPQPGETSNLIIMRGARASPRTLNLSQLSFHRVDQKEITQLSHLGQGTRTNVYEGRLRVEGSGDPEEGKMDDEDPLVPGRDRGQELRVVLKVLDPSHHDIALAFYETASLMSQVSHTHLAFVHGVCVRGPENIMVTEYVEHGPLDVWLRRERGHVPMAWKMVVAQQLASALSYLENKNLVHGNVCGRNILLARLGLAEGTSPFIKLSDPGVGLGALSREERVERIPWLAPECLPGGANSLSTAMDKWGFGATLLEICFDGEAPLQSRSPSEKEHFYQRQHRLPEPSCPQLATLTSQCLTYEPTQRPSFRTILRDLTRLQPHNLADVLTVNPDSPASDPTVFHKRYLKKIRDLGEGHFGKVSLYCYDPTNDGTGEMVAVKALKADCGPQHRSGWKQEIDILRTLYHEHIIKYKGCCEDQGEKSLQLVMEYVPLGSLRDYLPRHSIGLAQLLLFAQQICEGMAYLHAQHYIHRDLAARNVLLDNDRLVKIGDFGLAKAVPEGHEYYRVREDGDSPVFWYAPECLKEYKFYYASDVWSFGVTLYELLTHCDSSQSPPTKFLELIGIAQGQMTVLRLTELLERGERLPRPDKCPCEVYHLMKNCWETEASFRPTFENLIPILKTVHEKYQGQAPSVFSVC
Serine/threonine-protein kinase N1, sequence (Q16512 2-942 limits assumed): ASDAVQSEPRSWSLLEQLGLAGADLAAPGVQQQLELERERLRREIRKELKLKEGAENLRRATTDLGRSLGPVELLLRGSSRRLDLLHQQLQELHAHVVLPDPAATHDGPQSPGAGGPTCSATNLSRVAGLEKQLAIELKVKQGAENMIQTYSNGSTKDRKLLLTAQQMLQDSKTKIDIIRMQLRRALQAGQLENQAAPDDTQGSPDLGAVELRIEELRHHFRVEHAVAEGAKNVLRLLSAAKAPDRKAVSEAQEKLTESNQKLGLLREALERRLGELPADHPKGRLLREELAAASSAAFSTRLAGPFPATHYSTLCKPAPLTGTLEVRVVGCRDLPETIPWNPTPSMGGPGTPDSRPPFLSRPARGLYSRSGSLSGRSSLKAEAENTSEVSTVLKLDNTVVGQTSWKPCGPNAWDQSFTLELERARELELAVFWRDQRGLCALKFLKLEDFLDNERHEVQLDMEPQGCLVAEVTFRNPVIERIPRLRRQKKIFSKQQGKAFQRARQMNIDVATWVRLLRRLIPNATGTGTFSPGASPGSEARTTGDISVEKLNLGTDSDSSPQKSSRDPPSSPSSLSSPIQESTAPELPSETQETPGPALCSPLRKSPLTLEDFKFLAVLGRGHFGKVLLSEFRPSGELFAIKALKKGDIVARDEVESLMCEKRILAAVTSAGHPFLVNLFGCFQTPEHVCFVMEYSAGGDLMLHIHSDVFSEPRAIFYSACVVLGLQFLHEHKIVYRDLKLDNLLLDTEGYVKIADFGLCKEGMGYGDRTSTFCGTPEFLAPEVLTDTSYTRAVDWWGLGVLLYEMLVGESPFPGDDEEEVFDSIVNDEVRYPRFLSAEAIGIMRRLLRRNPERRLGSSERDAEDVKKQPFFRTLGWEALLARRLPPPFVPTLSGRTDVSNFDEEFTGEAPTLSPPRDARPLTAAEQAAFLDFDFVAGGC
Casein kinase I isoform delta, sequence (P48730 whole entry, looked up, canonical isoform): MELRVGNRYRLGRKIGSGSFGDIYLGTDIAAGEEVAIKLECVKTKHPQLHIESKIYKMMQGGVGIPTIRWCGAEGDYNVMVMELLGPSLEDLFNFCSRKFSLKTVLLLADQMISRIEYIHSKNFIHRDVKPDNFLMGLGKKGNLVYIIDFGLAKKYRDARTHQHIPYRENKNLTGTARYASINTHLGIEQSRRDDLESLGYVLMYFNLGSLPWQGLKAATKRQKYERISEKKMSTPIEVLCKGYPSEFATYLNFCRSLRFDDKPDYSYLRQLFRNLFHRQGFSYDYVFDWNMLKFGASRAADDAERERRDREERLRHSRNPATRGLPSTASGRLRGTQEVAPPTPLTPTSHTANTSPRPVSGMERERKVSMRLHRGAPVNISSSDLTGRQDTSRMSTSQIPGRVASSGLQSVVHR
Serine/threonine-protein kinase MARK1 (Homo sapiens), sequence (Q9P0L2 whole entry, looked up): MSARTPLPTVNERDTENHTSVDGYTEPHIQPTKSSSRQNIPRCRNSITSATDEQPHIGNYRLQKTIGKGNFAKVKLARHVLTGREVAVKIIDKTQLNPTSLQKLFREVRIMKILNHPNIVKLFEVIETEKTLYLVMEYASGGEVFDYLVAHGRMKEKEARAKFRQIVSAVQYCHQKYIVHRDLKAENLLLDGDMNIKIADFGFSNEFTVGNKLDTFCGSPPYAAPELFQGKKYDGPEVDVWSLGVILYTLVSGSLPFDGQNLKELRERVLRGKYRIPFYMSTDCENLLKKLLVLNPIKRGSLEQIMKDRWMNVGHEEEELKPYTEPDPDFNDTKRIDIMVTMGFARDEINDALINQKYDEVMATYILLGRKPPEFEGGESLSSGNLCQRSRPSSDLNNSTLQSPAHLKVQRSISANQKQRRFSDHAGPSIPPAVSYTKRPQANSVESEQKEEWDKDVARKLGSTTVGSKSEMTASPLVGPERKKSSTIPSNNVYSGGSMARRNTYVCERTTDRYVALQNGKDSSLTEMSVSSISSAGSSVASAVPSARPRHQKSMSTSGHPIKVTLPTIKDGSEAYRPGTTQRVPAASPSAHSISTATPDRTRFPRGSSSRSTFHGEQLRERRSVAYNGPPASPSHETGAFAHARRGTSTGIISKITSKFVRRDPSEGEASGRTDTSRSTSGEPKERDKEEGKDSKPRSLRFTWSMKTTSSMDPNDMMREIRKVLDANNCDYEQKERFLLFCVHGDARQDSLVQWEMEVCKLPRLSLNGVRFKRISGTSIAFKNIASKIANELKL
Insulin receptor, sequence (P06213 28-758 limits assumed): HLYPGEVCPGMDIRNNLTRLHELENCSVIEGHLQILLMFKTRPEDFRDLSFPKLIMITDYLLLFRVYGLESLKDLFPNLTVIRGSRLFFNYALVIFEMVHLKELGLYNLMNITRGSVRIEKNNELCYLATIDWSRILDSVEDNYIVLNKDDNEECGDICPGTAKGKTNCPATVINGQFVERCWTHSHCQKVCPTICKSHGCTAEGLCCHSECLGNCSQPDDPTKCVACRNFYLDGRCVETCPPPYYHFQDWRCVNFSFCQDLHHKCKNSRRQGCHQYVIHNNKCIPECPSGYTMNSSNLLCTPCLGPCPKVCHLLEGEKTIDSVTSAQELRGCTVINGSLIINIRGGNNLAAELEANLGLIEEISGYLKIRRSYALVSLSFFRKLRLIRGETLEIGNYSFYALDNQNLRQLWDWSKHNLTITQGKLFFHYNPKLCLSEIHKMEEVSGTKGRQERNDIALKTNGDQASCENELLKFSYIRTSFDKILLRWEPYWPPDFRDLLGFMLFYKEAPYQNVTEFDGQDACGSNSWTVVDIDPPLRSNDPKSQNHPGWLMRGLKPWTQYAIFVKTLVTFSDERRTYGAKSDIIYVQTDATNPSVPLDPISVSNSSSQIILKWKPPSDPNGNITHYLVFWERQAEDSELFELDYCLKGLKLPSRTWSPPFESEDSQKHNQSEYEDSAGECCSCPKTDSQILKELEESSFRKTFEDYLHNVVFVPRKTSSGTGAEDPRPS
Insulin receptor, sequence (P06213 763-1382 limits assumed): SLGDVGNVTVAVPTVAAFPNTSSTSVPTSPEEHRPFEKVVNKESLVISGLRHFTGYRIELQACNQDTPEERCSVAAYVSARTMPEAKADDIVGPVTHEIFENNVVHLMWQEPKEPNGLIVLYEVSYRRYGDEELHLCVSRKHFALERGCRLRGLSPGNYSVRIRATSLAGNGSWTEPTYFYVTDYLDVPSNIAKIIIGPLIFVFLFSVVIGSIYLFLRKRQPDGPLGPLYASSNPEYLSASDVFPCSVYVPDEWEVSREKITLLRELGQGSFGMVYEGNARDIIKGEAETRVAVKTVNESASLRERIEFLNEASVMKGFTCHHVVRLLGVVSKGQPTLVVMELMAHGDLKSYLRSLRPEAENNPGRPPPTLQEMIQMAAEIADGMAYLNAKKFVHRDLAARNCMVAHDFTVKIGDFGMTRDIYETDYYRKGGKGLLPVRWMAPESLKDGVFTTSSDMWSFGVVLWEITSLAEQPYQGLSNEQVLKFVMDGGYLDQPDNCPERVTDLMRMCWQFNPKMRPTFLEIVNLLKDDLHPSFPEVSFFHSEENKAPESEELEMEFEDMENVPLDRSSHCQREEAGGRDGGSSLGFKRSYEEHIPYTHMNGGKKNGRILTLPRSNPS

In [1], `CN(C)C/C=C/C(=O)Nc1ccc(C(=O)N2CCCC(Nc3ncc(Cl)c(-c4c[nH]c5ccccc45)n3)C2)cc1` (stereo unspecified) displayed a % of control of 82%.
With `N#Cc1cccc(-c2c[nH]c3ncnc(N4CCOCC4)c23)c1`, the % of inhibition in assay [2] stood at 31%. The molecule further came in with a % of control at Activated CDC42 kinase 1 of 98%.
For the molecule `CC[C@@H]1[C@H](F)C(=O)N[C@@H]1COc1nccc2cc(C(N)=O)c(OC)cc12` [ZIMLOVISERTIB], the % of inhibition in assay [3] is 1.4%; in assay [4], 52.2%; in assay [5] it was -14.7%; in assay [6], -5.7%.
Regarding `CC(=O)Nc1cccc(-n2c(=O)n(C3CC3)c(=O)c3c(Nc4ccc(I)cc4F)n(C)c(=O)c(C)c32)c1`, the % of control amounted to 94% in assay [7] and 91% in assay [8].
Regarding `COc1cc(Nc2nc(C)cc(-c3cnn4nc(OC)ccc34)n2)cc(C(F)(F)F)c1`, the % of control in assay [9] and in [10] was 100% in each case.
The molecule `C=CC(=O)Nc1cccc(C(=O)Nc2ccc(Nc3cc(-c4[nH]c(SC)nc4C)ccn3)cc2)c1` came in with a % of control at Insulin receptor of 72%.
As to `C=CC(=O)Nc1cc(-n2c(=O)ccc3cnc4ccc(-c5ccc(NS(C)(=O)=O)cc5)cc4c32)ccc1C`, the % of control in [11] (at 1 µM) and in assay [11] (at 10 µM) was 100% in each case.
For the molecule `O[C@H]1CC[C@H](Nc2ncc3nc(Nc4c(F)cc(F)cc4F)n([C@H]4CCOC4)c3n2)CC1`, the % of control in assay [12] came to 100%.
Regarding `Cc1ccc(-c2ccc3c(ccc4sc5c(c43)NC[C@@H](C)NC5=O)n2)cn1`, the % of inhibition in [13] turned out to be 18%.

Source of the values: ChEMBL document CHEMBL5465560, “Selectivity Literature for EUbOPEN Chemogenomic Library” (2024).
